Experimental data: US8614222B2, “Methods of preventing and treating low bone mass diseases” (The Trustees of Columbia University in the City of New York, priority 2008, dated 2013)

Tests used:
Format in all cases: in vivo
[1] = test system: ovariectomized mice; assay: Bone histomorphometry in ovariectomized mice, preventive and curative regimen
Protocol: Six-week-old wild-type virgin female mice were purchased from the Jackson Laboratories and subjected to either bilateral ovariectomy or a sham operation after a few days of acclimatization to the animal facility post-arrival. Ovariectomy was performed under isofluorane anesthesia through dorsal, subrenal incision. In the first experiment, mice were treated from day 1 post-ovariectomy for 4 weeks with LP-533,401 (1, 10, 100 or 250 mg/kg/day) or vehicle. In the second experiment, mice were treated for 4 weeks from 2 to 6-weeks post-ovariectomy with LP-533,401 (250 mg/kg/day) or vehicle. […] LP-533,401 was dissolved in polyethylene glycol:5% dextrose (40:60) and given daily by gavage at the doses indicated. Animals were observed daily for any behavioral abnormalities. Mice were sacrificed at the end of the experimental regimen and processed for the skeletal and physiological analysis.
(§1) Bone histomorphometry was performed as previously described (Duey et al., 2000, Cell 100:197-207; Takeda et al., 2002, Cell 111:305-317; Parfitt et al., 1987, J. Bone Miner. Res. 2:595-610). Briefly, lumbar vertebrae were dissected, fixed for 24 hr in 10% formalin, dehydrated in graded ethanol series, and embedded in methyl methacrylate resin according to standard protocols (Parfitt et al., 1987, J. Bone Miner. Res. 2:595-610). Von Kossa/Von Gieson staining was performed using 7 μm sections for bone volume over tissue volume (BV/TV) measurement. Bone formation rate (BFR) was analyzed by the calcein double-labeling method (Ducy et al., 2000, Cell 100:197-207). Calcein (Sigma Chemical Co., St. Louis, Mo.) was dissolved in calcein buffer (0.15 M NaCl, 2% NaHCO3) and injected twice at 0.125 mg/g body weight on day 1 and 4, and then mice were killed on day 6. Unstained 4 μm sections were used for bone formation rate (BFR) measurements. For the analysis of parameters of osteoblasts and osteoclasts, 4 μm sections were stained with toluidine blue and tartrate-resistant acid phosphatase (TRAP), respectively (2). Histomorphometric analyses were performed using the Osteomeasure Analysis System (Osteometrics, Atlanta, Ga.).
(§2) Blood samples were collected from mice and rats through cardiac puncture under isoflurane anesthesia, kept on ice for 5 min, and centrifuged at 13,000 rpm for 10 min at 4° C. Serum samples were stored at −80° C. until hormonal analyses were performed. Serum serotonin levels were quantified by ELISA (Serotonin kit, Fitzgerald) while serotonin levels in brain regions were quantified by HPLC as described previously (Mann et al., 1992, Arch. Gen. Psychiatry 49:442-446). Serum levels of total deoxypyridinoline (DPD) cross-links was measured using the Merta tDPD kit (Quidel corp. Sandiago, Calif.) and Osteocalcin using Rat and Mouse Ocn IRMA kit.

[2] = test system: serum serotonin; assay: Serum serotonin levels in WT mice fed LP-533,401 (dose response)
Protocol: This decrease in serum serotonin levels reached 70% of control values when using 250 mg/kg of the compound while no change in brain serotonin content was observed (FIG. 15). […] Ovariectomized rodents present, as post-menopausal women do (Rodan & Martin, 2000, Science 289:1508-1514), a marked increase in bone resorption not compensated by a similar increase in bone formation.
as §2

[3] = test system: peripheral serotonin; assay: Peripheral serotonin levels in wild-type mice (Example 11); details: 5 mice per compound
Protocol: Serotonin serum levels were quantified using immunoassay kits from Fitzgerald (Serotonin) and serotonin levels in the different regions of the brain were quantified by HPLC method as described previously (Mann et al., 1992, Arch. Gen. Psychiatry 49:442-446).
The following three compounds were tested for their ability to effect peripheral serotonin levels in wild-type mice:
Also tested as a negative control was vehicle alone. Each compound as well as vehicle was administered to 5 mice and the resulting peripheral serotonin levels were as follows: […]

[4] = test system: brain serotonin; assay: Brain serotonin content in ovariectomized mice; details: OVX mice
Protocol: Six-week-old wild-type virgin female mice were purchased from the Jackson Laboratories and subjected to either bilateral ovariectomy or a sham operation after a few days of acclimatization to the animal facility post-arrival. Ovariectomy was performed under isofluorane anesthesia through dorsal, subrenal incision. In the first experiment, mice were treated from day 1 post-ovariectomy for 4 weeks with LP-533,401 (1, 10, 100 or 250 mg/kg/day) or vehicle. In the second experiment, mice were treated for 4 weeks from 2 to 6-weeks post-ovariectomy with LP-533,401 (250 mg/kg/day) or vehicle. In the third set of experiments, mice were treated for 6 weeks from 6 to 12-weeks post-ovariectomy with LP-533,401 (250 mg/kg/day) or vehicle. […]
as §2, with “Serum samples were stored at −80° C. until hormonal analyses were performed.” left out

[5] = test system: ovariectomized mice; assay: Gastrointestinal homeostasis and blood coagulation in ovariectomized mice; details: OVX mice, 6 weeks
[6] = test system: naive mice; assay: Histomorphometric analysis of vertebrae of naive mice; details: naive mice (FIG. 20A: 250 mg/kg/day orally, 6 weeks)
Protocol: FIG. 20. (A) Histomorphometric analysis of vertebrae of 12 week-old mice that received vehicle or LP-533,401 (250 mg/kg/day, orally) for 6 weeks. (B-E) Gastrointestinal transit rate (B), colon motility (C), efficiency of gastric emptying (D) and blood coagulation rate (E) in 18 week-old ovariectomized (OVX) mice that received orally vehicle or indicated doses of LP-533,401 for 6 weeks.
as §1, with “For the analysis of parameters of osteoblasts and osteoclasts, 4 μm sections were stained with toluidine blue and tartrate-resistant acid phosphatase (TRAP), respectively (2). Histomorphometric analyses were performed using the Osteomeasure Analysis System (Osteometrics, Atlanta, Ga.).” left out

[7] = OVX mice, 250 mg/kg/day for 4 weeks from week 2 post-ovariectomy
[8] = OVX mice, day 1 to 28 post-ovariectomy

`Nc1nc(OC(c2ccc(-c3cccc(F)c3)cc2)C(F)(F)F)cc(-c2ccc(C[C@H](N)C(=O)O)cc2)n1` (stereo partly drawn) [LP-533401, (2S)-2-amino-3-(4-(2-amino-6-(2,2,2-trifluoro-1-(3′-fluorobiphenyl-4-yl)ethoxy)pyrimidin-4-yl)phenyl)propanoic acid] was tested, and the “bone mass versus sham-operated mice” value ([1]; OVX mice, 25 mg/kg/day for 6 weeks from week 6 post-ovariectomy) was “similar”, the bone mass [1, 7] was “normalized” and the bone resorption parameters [1, 7] was “increased”. The “bone mass versus sham-operated mice” value ([1]; OVX mice, 100 or 250 mg/kg/day for 6 weeks from week 6 post-ovariectomy) was “significantly higher”, the “bone mass versus vehicle-treated ovariectomized mice” value ([1]; OVX mice, 250, 100 or 10 mg/kg once daily, day 1 to 28 post-ovariectomy) was “higher” and the “Cyclin D1 expression in the bones” value [1, 8] was “increase”. The bone formation rate [1, 8] was “major increase”, the osteoblast numbers [1, 8] was “major increase” and the osteocalcin serum levels [1, 8] was “major increase”. The “serum serotonin levels, dose response” value ([2]; WT mice fed with increasing amounts) was “dose-dependent decrease”, the “decrease in serum serotonin levels” value ([2]; WT mice, 250 mg/kg LP-533,401) was 70 % of control values and the “Peripheral serotonin (ng/ml) (mean ± SEM)” value [3] was 88.56 ± 12.93 ng/mL. For the same compound, the brain serotonin content ([4]; 250 mg/kg/day for 4 weeks from week 2 post-ovariectomy) was “unaffected”, the brain serotonin content ([4]; day 1 to 28 post-ovariectomy) was “unaffected” and the “coagulation rates versus vehicle” value [5] was “similar”. The colonic mobility ([5]; up to 250 mg/kg/day) was “None of these parameters were affected”, the gastric emptying ([5]; up to 250 mg/kg/day) was “None of these parameters were affected” and the total gastrointestinal transit ([5]; up to 250 mg/kg/day) was “None of these parameters were affected”. For the same compound, the “increase in bone mass” value [6] was “also observed in naive mice”.
